Data from US20200375929A1, “METHODS AND COMPOSITIONS FOR THE TREATMENT OF DISEASES ASSOCIATED WITH CANCER, INFLAMMATION, OR IMMUNE RESPONSE” (Washington University, priority 2017, published 2020).
Entries after “also recorded” stand apart in the source; their conditions may differ.

Columns and labels:
[1] = tested on: Nfkbiz 3′UTR; test: Nfkbiz 3′UTR GFP reporter in BV2 cells (flow cytometry); assay type: cell-based, mouse; conditions: DI 250 μM 12 h, LPS 1 h
Method: Mouse Nfkbiz 3′UTR Lenti-reporter-GFP (#MT-m64048) vector or pLenti-UTR-GFR-Blank vector (#m014) were purchased from Applied Biological Materials. For lentiviral production transfection mixture of 1.5-mL of Opti-MEM medium (Invitrogen), 18 μg of psPAX2 (gift from Didier Trono, Addgene plasmid #12260), 13 μg of pCMV-V-SVG (gift from Bob Weinberg, Addgene plasmid #8454), 20 μg of lentiviral construct, and 105 μL of polyethylenimine (1 mg/mL; 25 kDa; linear form; Polysciences). The mixture was incubated at room temperature for 20 min and added to HEK-293T cells (ATCC) cultured in DMEM supplemented with 10% FBS, 2 mM L-glutamine and 100 U/mL penicillin-streptomycin in 150-cm2 tissue culture flask. 48 h later, virus-containing medium was filtered through […] pore-size cellulose acetate filters and used directly for BV2 transduction in the presence of polybrene (8 μg/mL, Millipore). […]
For ROS measurements, cells were treated with DI (250 μM), loaded with 10 μM CM-H2DCFDA (Invitrogen) at RT for 30 min in Hank's balanced salt solution (HBSS). After incubation, cell were rinsed with warm HBSS, harvested and directly analyzed. […] For Nfkbiz 3′UTR reporter analysis GFP signal was determined in live cells. […] Cells were acquired on CantoII or LSRII flow cytometers (Becton Dickinson), and data were analyzed with FlowJo v.9.5.2 software (Tree Star). […]

[2] = tested on: STAT3; test: STAT3 activation in IL17A-stimulated HaCat cells (western blot); assay type: cell-based, human; conditions: DI 12 h
[3] = tested on: BMDMs; test: Nascent protein synthesis (Click chemistry labeling) and proteomic profiling in BMDMs; assay type: cell-based, mouse; conditions: DI, LPS 1 h, metabolic labeling, proteomics
Method: BMDMs were plated 2×10^6 cells per well in 6-well plates. Cells were either (1) treated with DI (250 μM) for 12 h and then stimulated with LPS (100 ng/mL) for 1 h, or (2) only stimulated with LPS (100 ng/mL) for 1 h, or (3) only treated with DI (250 μM) for 12 h, or (4) neither treated with DI nor LPS. Cells were then washed 3× with PBS and lysed in 200 μL of urea buffer (8 M urea, 75 mM NaCl, 50 mM Tris pH 8.0, 1 mM EDTA). Lysates were then cleared by centrifugation at 20,000 g and protein concentrations were determined by BCA assay (Pierce). 15 μg of total protein per sample were processed further. Disulfide bonds were reduced with 5 mM dithiothreitol and cysteines were subsequently alkylated with 10 mM iodoacetamide. Samples were diluted 1:4 with 50 mM Tris/HCl (pH 8.0) and sequencing grade modified trypsin (Promega) was added in an enzyme-to-substrate ratio of 1:50. After 16 h of digestion, samples were acidified with 1% formic acid (final concentration). […]
BMDMs were grown in 12-well plate, […] per well and treated with DI (250 μM) for 10 h. […] Total protein concentration was determined using RC/DC™ Protein Assay (Biorad). […] Proteins were separated on 4%-20% polyacrylamide gradient gels (BioRad) and biotinylated proteins were detected by western blot with streptavidin-HRP conjugate (1:1000, #554066, BD Pharmingen). […]

[4] = tested on: IL6, IL12, IL1b, TNFα; test: Cytokine production in LPS-stimulated BMDMs (ELISA); assay type: cell-based, mouse
Method: BMDM were prepared from 6- to 12-week-old mice as described 1 and cultured in RMPI-1640 medium supplemented with 10% fetal bovine serum (FBS), 2 mM L-glutamine, and 100 U/mL penicillin-streptomycin and mouse recombinant M-CSF ([…], Peprotech). For experiments, cells were seeded at concentration 10^6 cells/mL in tissue culture plates of various formats. The cells were treated with DI (250 μM (unless stated otherwise), cat #592498, Sigma), DMF (50 μM (unless stated otherwise), cat #242926, Sigma), 3-(ethoxycarbonyl)but-3-enoic acid (3MI, 5 μM, Aris Pharmaceuticals Inc.), 4-ethoxy-2-methylene-4-oxobutanoic acid (MI, Aris Pharmaceuticals Inc.) for 12 h and activated with lipopolysaccharide (LPS; 100 ng/mL; E. coli 0111:B4, Sigma) for 1 h or as indicated. In some experiments cells were stimulated with combination of LPS (20 ng/mL) and IFN-γ (50 ng/mL; Peprotech). In some experiments cells were treated with α-tocopherol (AT, 10 μM; Sigma), MitoTEMPO (MT, 500 μM; Sigma), N-acetylcysteine (NAC, 1 mM, Sigma), ethylester of GSH (EtGSH; 1 mM, Santa Cruz) or buthionene sulfoximine (BSO, 500 μM, Sigma) alone or in combination with DI for 12 h. In some experiments BMDMs were treated with DI for 12 h and bafilomycin A (BafA, 100 nM, Sigma) or MG132 (10 μM, Selleckchem) were added 30 min before subsequent LPS stimulation.
Cytokines in cell supernatants were analyzed using DuoSet® ELISA kits according to manufacturer protocol (R&D Systems). The supernatants from BMDMs were diluted 1:4, from human blood monocytes 1:3.

C=C(CC(=O)OC)C(=O)OC [DI, dimethyl itaconate]
Nfkbiz 3′UTR reporter GFP expression [1]: did not affect expression of reporter gene GFP; also recorded: not due to regulation of Nfkbiz 3′UTR
STAT3 activation [2]: effective to inhibit STAT3 activation
global protein synthesis [3]: did not affect protein synthesis globally
IL-6 production in DI-treated Atf3−/− cells compared to WT ([4]; Atf3−/− BMDMs, DI, LPS 24 h): significantly increased IL-6 production
LPS-induced cytokine production ([4]; BMDMs pretreated 12 h, then LPS): down-regulates production of IL6, IL12, and IL1b, but not TNFα
DI-mediated IL-6 inhibition in Nrf2-deficient BMDMs ([4]; Nrf2-deficient BMDMs, DI, LPS 4 h): did not alleviate
